Earlier results as cited in patent US5229134A, “Pharmaceutical compositions” (Laboratories Smith Kline & French, priority 1989, dated 1993).

Conditions: plasma levels

SMILES: CN/C(=N/CCSCc1nc[nH]c1C)NC#N [cimetidine]
- therapeutically effective concentration in plasma: 0.5 mg/L
